Reference: PMC3480206 (Future microbiology, 2012)
≈ marks a conversion by molar mass, not a printed value. Entries after “also recorded” stand apart in the source; their conditions may differ. Like-named read-outs stand apart in the source and are kept apart here.

Key:
Streptococcus pneumoniae = test: MIC on Streptococcus pneumoniae; format: cell-based
Haemophilus influenzae = test: MIC on Haemophilus influenzae; format: cell-based
[1] = system: Mycobacteria avium, marinum, chelonae and abscessus; test: MIC on other pathogenic Mycobacteria; format: cell-based
[2] = system: Mycobacterium tuberculosis H37Rv; test: In vitro drug interaction, checkerboard titration by 96-well microdilution; format: cell-based
[3] = system: Mycobacteria bovis, M. bovis BCG and Mycobacteria fortuitum; format: cell-based
Neisseria gonorrhoeae = test: MIC and MBC on Neisseria gonorrhoeae; format: cell-based
Mtb [4] = conditions: cited from earlier work
Aspergillus fumigatus = test: MIC on Aspergillus fumigatus; format: cell-based
Candida spp. = test: MIC on Candida spp.; format: cell-based
[5] = Phase Ic, multiple daily 300 mg doses
Mtb [6] = test: Broth microdilution MIC against Mtb; format: cell-based, Mycobacterium tuberculosis
[7] = mice; cited from earlier work
[8] = Phase Ib, multiple daily doses; format: in vivo, healthy humans
Cryptococcus neoformans = test: MIC on Cryptococcus neoformans; format: cell-based
Mtb [9] = conditions: 10 mg/kg, cited from earlier work
[10] = system: Mycobacterium tuberculosis H37Rv; test: BACTEC MIC; format: cell-based; conditions: ATCC27294|H37RV
[11] = IND-directed repeat-dose toxicology studies
[12] = In vivo pairwise drug-drug interaction studies with first-line drugs; conditions: pairwise studies of SQ109 with INH, RIF or streptomycin in mice or rats
[13] = Neurological safety assessment, rats; format: in vivo; conditions: 90-day oral dosing at 30, 120 and 240 mg/m^2/day
[14] = rat, in vivo; cited from earlier work
[15] = in vivo
Mtb [16] = conditions: cited from earlier work; remark: listed apart in the source
[17] = system: Mtb gene clusters GC82 and GC120, iniBAC operon; conditions: cited from earlier work
[18] = system: Helicobacter pylori clinical isolates; test: MIC and time-kill on Helicobacter pylori; format: cell-based
CYP3A4 = conditions: cited from earlier work
Mtb inside macrophages [19] = test: Intracellular killing in Mtb-infected macrophages; format: cell-based, Mycobacterium tuberculosis; conditions: SQ109 with CFZ; Reddy V, Unpublished Data
CYP450 2D6 and 2C19 = conditions: cited from earlier work
Mtb inside macrophages [20] = conditions: cited from earlier work
[21] = rats; cited from earlier work
[22] = human, in vivo
Enterococci spp. = test: MIC on Enterococci spp.; format: cell-based
[23] = Phase Ia, escalating single dose; conditions: for mean maximum concentration: fasting human subjects
[24] = Pulmonary safety testing, beagle dogs; format: in vivo; conditions: single oral dosing at 75, 140 and 300 mg/m^2
Clostridium difficile = test: MIC on Clostridium difficile; format: cell-based; conditions: Clostridioides difficile
[25] = PK evaluation on coadministration with second-line drugs
[26] = system: Mycobacterium tuberculosis H37Rv; conditions: cited from earlier work
[27] = Neurological safety assessment, beagle dogs; format: in vivo; conditions: 90-day oral dosing at 100, 300 and 1000 mg/m^2/day
[28] = system: Salmonella–Escherichia coli; test: Salmonella–Escherichia coli/microsome plate incorporation assay; format: cell-based; conditions: In vitro mutagenicity studies
[29] = Cardiovascular safety, beagle dogs
[30] = Micronucleus assay in rats; conditions: rat, in vivo
Mtb [31] = test: Rapid, high-dose model of TB infection; format: in vivo, mice; conditions: murine model of acute infection
[32] = system: Mycobacterium tuberculosis H37Rv; conditions: mouse, in vivo; cited from earlier work
[33] = 300 mg with high-fat, high-calorie meal
[34] = single oral dosing at 75, 140 and 300 mg/m^2

Question: With `CC(C)=CCC/C(C)=C/CNCCNC1C2CC3CC(C2)CC1C3` (stereo not drawn) [SQ109, N-geranyl-N′-(2-adamantyl)ethane-1,2-diamine] as the molecule, how does the MIC (Streptococcus pneumoniae) read?
Answer: 2 to 4 µg/mL (≈ 6.05 to 12.1 µM)

Question: And the MIC (Haemophilus influenzae)?
Answer: 1 to 32 µg/mL (≈ 3.03 to 96.8 µM)

Question: And the MIC [1]?
Answer: 4 to 16 µg/mL (≈ 12.1 to 48.4 µM)

Question: What about the MIC ([2]; Mycobacterium tuberculosis, H37RV, read-out: MIC Alone) of the same molecule?
Answer: 0.5 µg/mL

Question: And the in vitro interaction ([2]; SQ109 with AMK, Unpublished Data)?
Answer: synergy

Question: What about the in vitro interaction ([2]; SQ109 with CFZ, Reddy V, Unpublished Data) of the same molecule?
Answer: synergy

Question: What about the in vitro interaction ([2]; SQ109 with CM, Unpublished Data) of the same molecule?
Answer: synergy

Question: And the in vitro interaction ([2]; SQ109 with CS, Unpublished Data)?
Answer: additive

Question: And the in vitro interaction ([2]; SQ109 with ETA, Unpublished Data)?
Answer: additive

Question: And the in vitro interaction ([2]; SQ109 with KAN, Unpublished Data)?
Answer: additive

Question: And the in vitro interaction ([2]; SQ109 with MXF, Unpublished Data)?
Answer: synergy

Question: And the in vitro interaction ([2]; SQ109 with all the rifamycins, including rifapentine and rifabutin)?
Answer: profound synergy

Question: And the in vitro interaction ([2]; SQ109 with para-aminosalicylic acid, Unpublished Data)?
Answer: additive

Question: What about the “MIC Combination” value ([2]; checkerboard SQ109 + CFZ, Mtb H37Rv) of the same molecule?
Answer: 0.125 µg/mL

Question: What about the “activity against other Mycobacteria” value [3] of the same molecule?
Answer: active

Question: What about the “Mouse lymphoma mutation assay” value (Mouse lymphoma) of the same molecule?
Answer: Negative

Question: What about the MBC (Neisseria gonorrhoeae) of the same molecule?
Answer: 0.038 µg/mL (≈ 0.115 µM)

Question: And the MIC (Neisseria gonorrhoeae)?
Answer: 0.038 µg/mL (≈ 0.115 µM)

Question: What about the “incorporation into trehalose monomyclate (TMM)” value (Mtb [4]) of the same molecule?
Answer: increased

Question: And the “incorporation of mycolic acids into the cell wall” value (Mtb [4]; trehalose dimycolate and arabinogalactan-bound mycolates)?
Answer: decreased

Question: What about the MIC (Aspergillus fumigatus) of the same molecule?
Answer: 8 µg/mL (≈ 24.2 µM)

Question: And the MIC (Candida spp.)?
Answer: 1 to 8 µg/mL (≈ 3.03 to 24.2 µM)

Question: And the “subjects with lung concentrations above the MIC for Mtb” value ([5]; 12 h after dosing, expected from plasma concentration–time profile)?
Answer: approximately 50%

Question: What about the serious adverse events ([5]; Phase Ic, 300 mg daily for 14 days) of the same molecule?
Answer: no SAEs

Question: What about the “time to steady-state conditions” value ([5]; daily administration of 300 mg) of the same molecule?
Answer: ≤ 10 days

Question: And the “lung concentration relative to SQ109 MIC” value ([5]; steady state, once-daily 300 mg, from preclinical plasma/lung relationship)?
Answer: approximately 5.8 fold

Question: What about the MIC (Mtb [6]; Mycobacterium tuberculosis) of the same molecule?
Answer: 0.78 µg/mL (≈ 2.36 µM)

Question: What about the “MIC range” value (Mtb [6]; overall range on Mtb) of the same molecule?
Answer: 0.2 to 0.78 µg/mL

Question: What about the “concentration in lung and spleen compared with plasma” value [7] of the same molecule?
Answer: at least 45 fold

Question: And the tolerability ([8]; 75 mg daily for 14 days or 150 mg daily for 5 days then days 9 and 14)?
Answer: well tolerated

Question: And the serious adverse events ([8]; Phase Ib)?
Answer: no SAEs

Question: And the MIC (Cryptococcus neoformans)?
Answer: 0.25 to 4 µg/mL (≈ 0.756 to 12.1 µM)

Question: What about the “weight loss of infected mice” value (Mtb [9]; versus untreated infected mice) of the same molecule?
Answer: significantly reduced weight loss

Question: And the “efficacy in screening and chronic model of TB” value (Mtb [9]; mice)?
Answer: efficacious

Question: And the MIC [10]?
Answer: ≤ 0.2 µg/mL

Question: What about the “toxicities and adverse events” value ([11]; 40 mg/kg/day, three animal species, except emesis in dogs) of the same molecule?
Answer: no cardiovascular, hepatic, hematologic, neurological or ocular toxicities

Question: And the NOAEL ([11]; dog, rat, nonhuman primate, in vivo)?
Answer: 30 to 40 mg/kg/day

Question: And the phospholipidosis ([11]; in vivo)?
Answer: did cause phospholipidosis

Question: And the “in vivo drug–drug interactions or PK changes” value [12]?
Answer: no in vivo adverse drug–drug interactions or PK changes

Question: And the “Functional observational battery parameters” value [13]?
Answer: No change

Question: What about the “bioavailability of SQ109” value [14] of the same molecule?
Answer: 21.4%

Question: And the “Segment 1: effects on male and female gamete maturation, copulatory performance, fertilization, zygote development and embryo implantation” value [15]?
Answer: No impact

Question: And the “Segment 2: effects on pregnant female and development of embryo and fetus from implantation” value [15]?
Answer: No impact

Question: What about the “Effect on acid-fastness of Mtb” value (Mtb [16]) of the same molecule?
Answer: No effect

Question: And the “Activity on Mtb gene clusters GC82 and GC120” value [17]?
Answer: Downregulates

Question: What about the “transcription of the iniBAC operon” value [17] of the same molecule?
Answer: induces

Question: What about the bactericidal or bacteriostatic ([18]; H. pylori) of the same molecule?
Answer: bactericidal

Question: What about the “time–kill assays versus first-line drugs” value ([18]; H. pylori) of the same molecule?
Answer: better than amoxicillin and metronidazole

Question: What about the MIC range ([18]; all H. pylori clinical isolates, manuscript in preparation) of the same molecule?
Answer: 2.5 to 15 µg/mL

Question: What about the “activation of CYP450 3A4” value (CYP3A4) of the same molecule?
Answer: not activated

Question: And the “metabolism by CYP450 3A4” value (CYP3A4)?
Answer: nor is it metabolized

Question: And the “interaction in macrophage intracellular killing assay” value (Mtb inside macrophages [19])?
Answer: synergy

Question: What about the “human CYP450 enzymes producing the four major metabolites” value (CYP450 2D6 and 2C19) of the same molecule?
Answer: CYP450 2D6 and 2C19

Question: What about the “time to kill intracellular Mtb in infected macrophage assay” value (Mtb inside macrophages [20]; SQ109 with sutezolid) of the same molecule?
Answer: improved synergistically

Question: What about the “reduction of intracellular Mtb” value (Mtb inside macrophages [20]; at its MIC) of the same molecule?
Answer: 99%

Question: And the “killing of Mtb inside macrophages relative to INH and EMB” value (Mtb inside macrophages [20])?
Answer: equivalent to INH and superior to EMB

Question: What about the tissue distribution [21] of the same molecule?
Answer: highest concentrations of SQ109 in liver

Question: And the safety and tolerability [22]?
Answer: safe and well-tolerated

Question: And the MIC (Enterococci spp.)?
Answer: 8 to 32 µg/mL (≈ 24.2 to 96.8 µM)

Question: What about the “food effect on half-life” value [23, 33] of the same molecule?
Answer: increased

Question: What about the “food effect on maximum serum concentration” value [23, 33] of the same molecule?
Answer: decreased

Question: What about the mean maximum concentration ([23]; 10-mg oral dose) of the same molecule?
Answer: 0.729 ng/mL

Question: And the mean maximum concentration ([23]; 300-mg oral dose)?
Answer: 20.2 ng/mL

Question: And the serious adverse events ([23]; Phase Ia, single oral doses 5-300 mg)?
Answer: no serious AEs

Question: And the half-life ([23]; human, serum, oral, 300 mg)?
Answer: 61.1 h

Question: And the Minute volume [24]?
Answer: No change

Question: And the Respiratory rate [24]?
Answer: No change

Question: What about the Tidal volume [24] of the same molecule?
Answer: No change

Question: And the MIC (Clostridium difficile)?
Answer: 8 to 16 µg/mL (≈ 24.2 to 48.4 µM)

Question: What about the “exposure of mice to SQ109” value ([25]; in the presence of CS and KAN) of the same molecule?
Answer: slightly decreased

Question: And the “pharmacology profile on coadministration” value ([25]; mice, SQ109 and MXF coadministered)?
Answer: not affected

Question: And the “improvement of SQ109 activity” value [26]?
Answer: fourfold

Question: And the in vitro interaction [26]?
Answer: synergistic; also recorded: additive

Question: And the “Functional observational battery parameters” value [27]?
Answer: No change

Question: What about the “Salmonella–Escherichia coli/microsome plate incorporation assay” value [28] of the same molecule?
Answer: Negative

Question: And the Blood pressure ([29]; at 75 and 140 mg/m^2)?
Answer: No change

Question: What about the Body weights [29, 34] of the same molecule?
Answer: No change

Question: What about the Clinical observations [29, 34] of the same molecule?
Answer: No deaths

Question: What about the “Clinical pathology: hematology or clinical chemistry” value [29, 34] of the same molecule?
Answer: No change

Question: What about the “ECG waveforms (rhythms and morphology)” value [29, 34] of the same molecule?
Answer: No change

Question: And the “Heart rate/ECG data” value [29, 34]?
Answer: No change

Question: What about the “Micronucleus assay in rats” value [30] of the same molecule?
Answer: Negative

Question: And the “efficacious dose for treatment of TB” value (Mtb [31])?
Answer: 10 mg/kg/day

Question: What about the “activity in model of chronic TB” value [32] of the same molecule?
Answer: better activity than EMB at 100 mg/kg
